Experimental data taken from patent publication US12023319B2, “Carboxylic acid aromatic amides” (priority 2016, dated 2024).

biological target: T1, human Bradykinin B1 receptor (Homo sapiens, UniProt P46663); experiment: Calcium flux assay (FLIPR), CHO-K1 cells expressing human Bradykinin B1 receptor, absence of 0.1% BSA (hB1 free IC50); type: cell-based; details: absence of 0.1% BSA in assay buffer
T1 construct: host or cells: CHO-K1
T1 sequence (P46663 1-353): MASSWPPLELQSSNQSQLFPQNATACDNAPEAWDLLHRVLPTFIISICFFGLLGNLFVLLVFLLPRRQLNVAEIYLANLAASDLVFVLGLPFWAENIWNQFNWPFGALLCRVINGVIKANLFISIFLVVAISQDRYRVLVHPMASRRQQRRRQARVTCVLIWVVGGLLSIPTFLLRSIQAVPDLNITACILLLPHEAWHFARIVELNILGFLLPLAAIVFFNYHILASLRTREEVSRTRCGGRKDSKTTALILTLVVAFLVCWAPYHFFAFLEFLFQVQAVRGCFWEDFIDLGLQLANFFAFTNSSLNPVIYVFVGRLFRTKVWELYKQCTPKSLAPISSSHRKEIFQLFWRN
Summary of the method: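 CHO-K1 hB1-D1 cells, dye-loaded, given compounds (8 concentrations, triplicate, 1% DMSO) 30 min at 28° C, then stimulated with selective B1 agonist peptide; Ca2+ fluorescence read at 538 nm on FLIPR. Peak response normalised to DMSO and 20 µM Lys-(Des-Arg-Leu)-Bradykinin full inhibition; IC50 fitted.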

SMILES	IC50
O=C(O)c1cc(NC(=O)C2(c3ccc(OC(F)(F)F)cc3F)CC2)ccc1-c1cnn(C2CCCCC2)c1 [Example 123, 2-(1-Cyclohexyl-1H-pyrazol-4-yl)-5-[({1-[2-fluoro-4-(trifluoromethoxy)phenyl]cyclopropyl}carbonyl)amino]benzoic acid]	0.022 µM
O=C(O)c1cc(NC(=O)C2(c3ccc(C(F)(F)F)cc3F)CC2)ccc1-c1cnn(C2CC2)c1 [Example 124, 2-(1-Cyclopropyl-1H-pyrazol-4-yl)-5-[({1-[2-fluoro-4-(trifluoromethyl)phenyl]cyclopropyl}carbonyl)amino]benzoic acid]	0.2 µM
O=C(O)c1cc(NC(=O)C2(c3ccc(OC(F)(F)F)cc3F)CC2)ccc1-c1cnn(C2CC2)c1 [Example 125, 2-(1-Cyclopropyl-1H-pyrazol-4-yl)-5-[({1-[2-fluoro-4-(trifluoromethoxy)phenyl]cyclopropyl}carbonyl)amino]benzoic acid]	0.17 µM
O=C(O)c1cc(NC(=O)C2(c3ccc(C(F)(F)F)cc3F)CC2)cc(F)c1-c1cnn(CC2CC2)c1 [Example 126, 2-[1-(Cyclopropylmethyl)-1H-pyrazol-4-yl]-3-fluoro-5-[({1-[2-fluoro-4-(trifluoromethyl)phenyl]cyclopropyl}carbonyl)amino]benzoic acid]	0.014 µM
O=C(O)c1cc(NC(=O)C2(c3ccc(OC(F)(F)F)cc3F)CC2)cc(F)c1-c1cnn(CC2CC2)c1 [Example 127, 2-[1-(Cyclopropylmethyl)-1H-pyrazol-4-yl]-3-fluoro-5-[({1-[2-fluoro-4-(trifluoromethoxy)phenyl]cyclopropyl}carbonyl)amino]benzoic acid]	0.011 µM
Cc1ccc(-c2c(F)cc(NC(=O)C3(c4ccc(C(F)(F)F)cc4F)CC3)cc2C(=O)O)cn1 [Example 128, 3-Fluoro-5-[({1-[2-fluoro-4-(trifluoromethyl)phenyl]cyclopropyl}carbonyl)amino]-2-(6-methylpyridin-3-yl)benzoic acid]	0.037 µM
O=C(O)c1cc(NC(=O)C2(c3ccc(C(F)(F)F)cc3F)CC2)ccc1-n1cc(C2CCC2)cn1 [Example 129, 2-(4-Cyclobutyl-1H-pyrazol-1-yl)-5-[({1-[2-fluoro-4-(trifluoromethyl)phenyl]cyclopropyl}carbonyl)amino]benzoic acid]	0.62 µM
O=C(O)c1cc(NC(=O)C2(c3ccc(OC(F)(F)F)cc3F)CC2)ccc1-n1cc(C2CCC2)cn1 [Example 130, 2-(4-Cyclobutyl-1H-pyrazol-1-yl)-5-[({1-[2-fluoro-4-(trifluoromethoxy)phenyl]cyclopropyl}carbonyl)amino]benzoic acid]	0.59 µM
CC[C@H](C)n1cc(-c2ccc(NC(=O)C3(c4ccc(C(F)(F)F)cc4F)CC3)cc2C(=O)O)cn1 [Example 131, 2-{1-[(2S)-Butan-2-yl]-1H-pyrazol-4-yl}-5-[({1-[2-fluoro-4-(trifluoromethyl)phenyl]cyclopropyl}carbonyl)amino]benzoic acid]	0.05 µM
CC[C@H](C)n1cc(-c2ccc(NC(=O)C3(c4ccc(OC(F)(F)F)cc4F)CC3)cc2C(=O)O)cn1 [Example 132, 2-{1-[(2S)-Butan-2-yl]-1H-pyrazol-4-yl}-5-[({1-[2-fluoro-4-(trifluoromethoxy)phenyl]cyclopropyl}carbonyl)amino]benzoic acid]	0.056 µM
CC[C@@H](C)n1cc(-c2ccc(NC(=O)C3(c4ccc(C(F)(F)F)cc4F)CC3)cc2C(=O)O)cn1 [Example 133, 2-{1-[(2R)-Butan-2-yl]-1H-pyrazol-4-yl}-5-[({1-[2-fluoro-4-(trifluoromethyl)phenyl]cyclopropyl}carbonyl)amino]benzoic acid]	0.059 µM
CC[C@@H](C)n1cc(-c2ccc(NC(=O)C3(c4ccc(OC(F)(F)F)cc4F)CC3)cc2C(=O)O)cn1 [Example 134, 2-{1-[(2R)-Butan-2-yl]-1H-pyrazol-4-yl}-5-[({1-[2-fluoro-4-(trifluoromethoxy)phenyl]cyclopropyl}carbonyl)amino]benzoic acid]	0.044 µM
CC[C@H](C)n1cc(-c2c(F)cc(NC(=O)C3(c4ccc(C(F)(F)F)cc4F)CC3)cc2C(=O)O)cn1 [Example 135, 2-{1-[(2S)-Butan-2-yl]-1H-pyrazol-4-yl}-3-fluoro-5-[({1-[2-fluoro-4-(trifluoromethyl)phenyl]cyclopropyl}carbonyl)amino]benzoic acid]	0.033 µM
CC[C@@H](C)n1cc(-c2c(F)cc(NC(=O)C3(c4ccc(C(F)(F)F)cc4F)CC3)cc2C(=O)O)cn1 [Example 136, 2-{1-[(2R)-Butan-2-yl]-1H-pyrazol-4-yl}-3-fluoro-5-[({1-[2-fluoro-4-(trifluoromethyl)phenyl]cyclopropyl}carbonyl)amino]benzoic acid]	0.028 µM
Cn1cc(-c2c(F)cc(NC(=O)C3(c4ccc(OC(F)(F)F)cc4F)CC3)cc2C(=O)O)cn1 [Example 137, 3-Fluoro-5-[({1-[2-fluoro-4-(trifluoromethoxy)phenyl]cyclopropyl}carbonyl)amino]-2-(1-methyl-1H-pyrazol-4-yl)benzoic acid]	0.07 µM

Other lines, results leading:

IC50	SMILES
0.018 µM	CCn1cc(-c2c(F)cc(NC(=O)C3(c4ccc(C(F)(F)F)cc4F)CC3)cc2C(=O)O)cn1 [Example 138, 2-(1-Ethyl-1H-pyrazol-4-yl)-3-fluoro-5-[({1-[2-fluoro-4-(trifluoromethyl)phenyl]cyclopropyl}carbonyl)amino]benzoic acid]
0.013 µM	CCn1cc(-c2c(F)cc(NC(=O)C3(c4ccc(OC(F)(F)F)cc4F)CC3)cc2C(=O)O)cn1 [Example 139, 2-(1-Ethyl-1H-pyrazol-4-yl)-3-fluoro-5-[({1-[2-fluoro-4-(trifluoromethoxy)phenyl]cyclopropyl}carbonyl)amino]benzoic acid]
0.021 µM	CC(C)n1cc(-c2c(F)cc(NC(=O)C3(c4ccc(Cl)cc4F)CC3)cc2C(=O)O)cn1 [Example 140, 5-({[1-(4-Chloro-2-fluorophenyl)cyclopropyl]carbonyl}amino)-3-fluoro-2-(1-isopropyl-1H-pyrazol-4-yl)benzoic acid]
2.8 µM	O=C(O)c1cc(NC(=O)C2(c3ccccc3)CC2)cc(F)c1-c1cnn(C2CCC2)c1 [Example 141, 2-(1-Cyclobutyl-1H-pyrazol-4-yl)-3-fluoro-5-{[(1-phenylcyclopropyl)carbonyl]amino}benzoic acid]
3.1 µM	O=C(O)c1cc(NC(=O)C2(Cc3ccc(Cl)cc3)CC2)cc(F)c1-c1cnn(C2CCC2)c1 [Example 142, 5-({[1-(4-Chlorobenzyl)cyclopropyl]carbonyl}amino)-2-(1-cyclobutyl-1H-pyrazol-4-yl)-3-fluorobenzoic acid]
0.078 µM	Cn1cc(-c2c(F)cc(NC(=O)C3(c4ccc(C(F)(F)F)cc4F)CC3)cc2C(=O)O)cn1 [Example 143, 3-Fluoro-5-[({1-[2-fluoro-4-(trifluoromethyl)phenyl]cyclopropyl}carbonyl)amino]-2-(1-methyl-1H-pyrazol-4-yl)benzoic acid]
0.16 µM	CC1CCC(C2(C(=O)Nc3cc(F)c(-c4cnn(C5CCC5)c4)c(C(=O)O)c3)CC2)CC1 (stereo not shown) [Example 145, 2-(1-Cyclobutyl-1H-pyrazol-4-yl)-3-fluoro-5-({[1-(4-methylcyclohexyl)cyclopropyl]carbonyl}amino)benzoic acid]
